Reference: US11759480B2, “Compositions and methods for CAR T cell therapy” (ENDOCYTE, INC., priority 2017, dated 2023)

Key:
HOS-FRα = experiment: EC17-controlled anti-FITC CAR T-cell therapy in osteosarcoma model (Example 47); assay type: in vivo, NSG mice
Description: HOS-FRα cells were implanted subcutaneously with 5×10^5 per animal in 6 animals.
[…] One animal in the EC17-treated group received two more doses of EC17 at 50 and 100 nmol/kg on Days 40 and 42. All EC17 doses were given towards the end of the day (˜3-4 PM) to allow cytokine release syndrome (CRS) to develop overnight. Sodium fluorescein rescue was done as needed at 0.6 μmol/kg. Only the last EC17-dosed animal received sodium fluorescein on day 47.

KB = experiment: FITC-CAR-T/EC17 therapy, KB model (Example 28); assay type: in vivo, NSG mice
Protocol: (§1) To test whether FITC-CAR-T/EC17 therapy has anti-tumor activity in various FR+ tumor models, NSG mice were subcutaneously implanted with MDA-MB-231 (triple negative breast cancer cell line), OV90 (human ovarian cancer cell line), KB (human cervical adenocarcinoma cell line), SKOV-3 (human ovarian carcinoma cell line), or HEK293-FRa (HEK293 stably-transfected with human FRa). When tumor size reached […], one dose of EC17 at 500 nmol/kg of body weight was injected by tail vein followed with administering of 5 million FITC-CAR-T cells 4 hours later. 500 nmol/kg EC17 was dosed once every week after the initial EC17/CAR-T administration (about day 7), tumor size and body weights of mice were monitored three times per week. The EC17 dosing days were labeled as green dashed vertical lines in the graph. […] EC17 dose-dependent temporary body weight loss was also observed in all tumor bearing mice, indicating the activation of CAR-Ts is EC17-dependent in these mice.

[1] = test system: MDA-MB-231 solid tumor xenografts; experiment: Control of CAR T cell activation in vivo: break, FA competitor or both (Example 19); conditions: 15×10^6 CAR T cells + FITC-Folate 500 nmole/kg every other day
Protocol: Five study groups were designed to test whether anti-FITC CAR T cell activation can be controlled via temporal termination of FITC-ligands, by administering a competitor small molecule, or a combination approach of both discontinuing of FITC-ligands and/or administering an FA competitor. The first group was treated by administering anti-FITC CAR T cell with phosphate-buffered saline (PBS) as a negative control. Every other day over the course of the study, the second, third, fourth and fifth groups were treated with anti-FITC CAR T cell mixed with FITC-Folate (500 nmole/kg). […] Mouse bodyweight was measured regularly to test for toxicity.

MDA-MB-231 = experiment: FITC-CAR-T/EC17 therapy, MDA-MB-231 model (Example 28); assay type: in vivo, NSG mice; conditions: 500 nmol/kg weekly, 5 million FITC-CAR-T
Protocol: as §1

[2] = test system: anti-fluorescein scFv on CAR T cells; experiment: Competitive binding assay against FITC-Alexa647 on CAR T cells; conditions: 1 μM competing ligand versus FITC-Alexa647 10 nM
Protocol: To examine the ability of bridge molecules to bind anti-fluorescein scFv on CAR T cells, a competitive binding assay was developed. Measurement of the fluorescein signal from CAR T cell bound bridges could not be used due to the overlap of its fluorescence with that of the GFP expressing CAR T cells. For this purpose, FITC-Alexa647 (10 nM) was allowed to bind anti-fluorescein CAR T cells in the absence or presence of excess (1 μM) competing ligand (i.e. FITC-folate, FITC-DUPA, FITC-CA9) for 1 h at room temperature. After incubation, anti-fluorescein CAR T cells were washed 3× with PBS to remove unbounded FITC-Alexa647, and the washed cells were analyzed for Alexa647 fluorescence by flow cytometry.
Fluorescein-folate (FITC-folate) and fluorescein-PSMA (FITC-DUPA) were synthesized as previously described. To examine the ability of these bridge molecules to bind anti-fluorescein scFv on CAR T cells, a competitive binding assay had to be developed, because measurement of the fluorescein signal from CAR T cell bound bridge could not be used due to the overlap of its fluorescence with that of the GFP expressing CAR T cells. For this purpose, FITC-Alexa647 (10 nM) was allowed to bind anti-fluorescein CAR T cells in the absence or presence of excess (1 μM) competing ligand (i.e. FITC-folate) for 1 h at room temperature. After incubation, anti-fluorescein CAR T cells were washed 3× with PBS to remove unbounded FITC-Alexa647, and the washed cells were analyzed for Alexa647 fluorescence by flow cytometry. For analysis of FITC-folate to binding to folate receptor, FR positive KB cells were incubated with FITC-folate (100 nM) in the absence or presence of excess (10 μM) free folate (i.e. as a competitive ligand). After washing samples with PBS (3 times), samples were analyzed by flow cytometry for fluorescein-folate binding.

MDA-MB-231 tumors [3] = experiment: IFN-γ in blood versus EC17 dose level and presence of tumor (Example 24); assay type: in vivo, mice; conditions: 10 days after CAR-T injection, EC17 three times per week
Protocol: CAR-T cells were injected into naïve mice (8 million per mouse) and mice bearing MDA-MB-231 tumors (5 million per mouse). Various levels of EC17 were administrated three times per week. IFN-γ in blood was measured 10 days after CAR-T cell injection.

MDA-MB-231 tumors [4] = experiment: EC17 pre-painting combined with delayed second EC17 dose (Example 30); assay type: in vivo, mice
Protocol: FITC-CAR-T related toxicity (e.g. sCRS) can be reduced by the combination of EC17 pre-painting and the delay of EC17 dosing post CAR-T administration. To explore strategies to control therapy-related toxicity, the combination of the EC17 pre-painting and EC17 dosing schedule optimization was evaluated. Mice bearing MDA-MB-231 tumors (100-200 mm3) were divided into three groups. Mice in group #1 (no EC17 pre-painting) were administered with 8 million FITC-CAR-T cells through the tail vein, and 500 nmol/kg EC17 was then dosed as a single dose per week (at days 2, 9, 16, etc.) post CAR-T administration. Mice in group #2 (EC17 4 hour pre-painting) were pre-painted with 500 nmol/kg EC17 4 hours before the administration of 8 million CAR-T cells, and 500 nmol/kg EC17 was then dosed as a single dose per week post CAR-T administration. Mice in group #3 (EC17 4 hour pre-painting+delayed second EC17 dose) were also pre-painted with 500 nmol/kg EC17 4 hours before the administration of 8 million CAR-T cells, but the second dose of 500 nmol/kg EC17 was postponed until 7 days after CAR-T administration, and the single dose per week schedule of EC17 dosing was then followed. Three days after CAR-T administration, mice in the three groups were evaluated by visual observation.

## Nc1nc2ncc(CNc3ccc(C(=O)NC(CCC(=O)NCCNC(=S)Nc4ccc(-c5c6ccc(=O)cc-6oc6cc(O)ccc56)c(C(=O)O)c4)C(=O)O)cc3)nc2c(=O)[nH]1 (centres unmarked) [EC17, FITC-Folate]
HOS-FRα; 500 nmol/kg SIW, 10.5 million CAR T-cells
  tumor volume: started to shrink on Days 28 and 33
HOS-FRα; once tumors reached >200 mm^3
  CRS: CRS was severe
KB; 500 nmol/kg weekly, 5 million FITC-CAR-T
  tumor response: stable disease
KB; day 23
  fraction of mice with sCRS: ⅔
KB; day 37
  fraction of mice with sCRS: ⅓
[1]
  weight loss (serious CAR T cell mediated toxicity): > 10%
MDA-MB-231
  cures: 100%
[2]
  binding to CAR-expressing T cells: able to bind to the CAR-expressing T cells
[2]; listed as fluorescein-folate
  binding to CAR-expressing T cells: competitively block FITC-Alexa 647 binding
MDA-MB-231 tumors [3]
  cytokine production (IFN-γ in blood): dependent on both the bridge (EC17) dose level and the presence of the tumor
MDA-MB-231 tumors [4]; all three groups
  anti-tumor outcome: complete responses
MDA-MB-231 tumors [4]; group #1 no pre-painting, three days after CAR-T
  sCRS by visual observation: the worst sCRS
MDA-MB-231 tumors [4]; group #2 EC17 4 hour pre-painting
  sCRS by visual observation: sCRS but less severe
MDA-MB-231 tumors [4]; group #3 EC17 4 hour pre-painting + delayed second EC17 dose
  sCRS by visual observation: didn't show sCRS
